Results taken from US20240391928A1, “COMPOSITIONS FOR THE TREATMENT OF FOOD AND CHEMICAL ADDICTION AND METHODS OF MAKING AND USING SAME” (Duke University, priority 2021, published 2024).
“Also recorded” adds a separate entry of the source.

Columns and labels:
hGHSR1a^D99A = target: T1, hGHSR1a^D99A (Homo sapiens, UniProt Q92847, D99A); assay: Gαq dissociation (TRUPATH) and iCa2+ at D99A mutant; format: cell-based; details: surface expression reduced markedly
T1 construct: expressed in transfected cells; host or cells: HEK293/T, transient
T1 sequence (Q92847 whole entry D99A): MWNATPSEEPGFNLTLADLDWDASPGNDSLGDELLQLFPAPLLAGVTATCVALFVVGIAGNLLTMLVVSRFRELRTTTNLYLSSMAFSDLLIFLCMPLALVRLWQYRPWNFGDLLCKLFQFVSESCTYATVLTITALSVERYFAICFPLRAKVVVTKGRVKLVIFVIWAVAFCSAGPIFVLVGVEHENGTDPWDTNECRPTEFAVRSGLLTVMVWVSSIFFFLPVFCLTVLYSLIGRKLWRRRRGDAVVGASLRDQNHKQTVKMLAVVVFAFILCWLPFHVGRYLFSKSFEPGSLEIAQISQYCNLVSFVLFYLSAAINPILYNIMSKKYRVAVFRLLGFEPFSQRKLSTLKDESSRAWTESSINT
Procedure: (§1) For experiments with WT and Gt KO HEK293/S cells, […] of hGHSR1a^WT, 10 μg of miAEQ, and 2.5 μg of pcDNA3.1 was transiently transfected into 10 cm dishes and incubated overnight. […] Twenty-four hours later, experiments proceeded in accordance with the procedures described above. To control for any possible kinetic differences in genetically modified cell lines or GHSR1a variants, the average ligand-induced response over 10 seconds was calculated, then normalized by dividing the L-miAeq by the L-miAeq plus the Lysis-miAeq and normalized to the appropriate control/reference condition.

GHSR1a^P200A = target: T2, GHSR1a^P200A (Homo sapiens, UniProt Q92847, P200A); assay: Gαq dissociation and iCa2+ at P200A mutant; format: cell-based
T2 construct: expressed in transfected cells; host or cells: HEK293/T
T2 sequence (Q92847 whole entry P200A): as the sequence (Q92847 whole entry D99A) above, with A99D, P200A counted along it
Procedure: as §1

GHSR1a^E197A = target: T3, GHSR1a^E197A (Homo sapiens, UniProt Q92847, E197A); assay: TRUPATH Gαq dissociation at E197A mutant; format: cell-based
T3 construct: expressed in transfected cells; host or cells: HEK293/T
T3 sequence (Q92847 whole entry E197A): as the sequence (Q92847 whole entry D99A) above, with A99D, E197A counted along it

[1] = target: T4, hGHSR1a^WT-RLucII / mVenus-β-arr2 (Homo sapiens, UniProt Q92847); assay: BRET β-arr2 recruitment; format: cell-based
T4 construct: expressed in transfected cells; host or cells: HEK293/T, transient
T4 sequence (Q92847 whole entry): as the sequence (Q92847 whole entry D99A) above, with A99D counted along it
T4 sequence (P32121 whole entry partner): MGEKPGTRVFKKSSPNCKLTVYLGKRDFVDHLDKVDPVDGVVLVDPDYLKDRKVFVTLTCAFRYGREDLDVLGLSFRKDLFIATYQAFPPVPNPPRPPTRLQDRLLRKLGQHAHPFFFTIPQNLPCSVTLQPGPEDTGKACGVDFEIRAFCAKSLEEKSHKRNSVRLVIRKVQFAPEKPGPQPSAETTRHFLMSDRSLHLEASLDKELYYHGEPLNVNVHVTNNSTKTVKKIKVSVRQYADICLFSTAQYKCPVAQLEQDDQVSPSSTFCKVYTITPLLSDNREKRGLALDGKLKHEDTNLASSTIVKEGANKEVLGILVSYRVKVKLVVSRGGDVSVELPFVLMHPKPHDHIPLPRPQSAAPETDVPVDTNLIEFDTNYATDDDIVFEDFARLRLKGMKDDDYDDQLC
Procedure: The morning after transfection, media was exchanged and after 4-6 hours, cells were then plated on white 96-well, clear-bottomed assay plates at a density of 45,000 cells/well in opti-MEM supplemented with 2% FBS and antibiotic/antimycotic. The following morning, opti-MEM was removed and cells were incubated with 70-80 μL HBSS supplemented with 20 mM HEPES (pH 7.4) for 4 hours. Cells were then treated with 10 μL of coelenterazine H (5 μM final) for 5-10 minutes at room temperature.

mGHSR A199P = target: T5, mGHSR A199P (Mus musculus, UniProt Q99P50, A199P); assay: Gαq dissociation and β-arr2 recruitment at humanized mouse receptor; format: cell-based
T5 construct: expressed in transfected cells
T5 sequence (Q99P50 whole entry A199P): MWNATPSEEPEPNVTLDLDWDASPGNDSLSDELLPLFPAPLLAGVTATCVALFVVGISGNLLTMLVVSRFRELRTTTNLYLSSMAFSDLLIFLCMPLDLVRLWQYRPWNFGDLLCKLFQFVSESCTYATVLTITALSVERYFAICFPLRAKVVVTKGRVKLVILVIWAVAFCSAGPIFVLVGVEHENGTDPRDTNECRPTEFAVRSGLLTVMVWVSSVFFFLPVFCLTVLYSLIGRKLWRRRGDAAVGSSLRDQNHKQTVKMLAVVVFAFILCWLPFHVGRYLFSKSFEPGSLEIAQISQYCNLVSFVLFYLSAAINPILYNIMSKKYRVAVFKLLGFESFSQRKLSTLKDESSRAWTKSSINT
Procedure: To assess if N8279 signaling required receptor sites within and/or conformational states are conserved from the mouse receptor to the human receptor, the amino acid sequences for variations within the ECL2 were first determined (FIG. 17A). Mutations were made to human GHSR1a receptor (hGHSR) for W193R and P200A and to mouse GHSR1a receptor (mGHSR) for […]. N8279-stimulated Gαq dissociation (FIG. 17B) and β-arr2 recruitment (FIG. 17C) were evaluated for each hGHSR and mGHSR mutants in comparison to endogenous (WT) receptors.

hGHSR1a^A204E [2] = target: T6, hGHSR1a^A204E (Homo sapiens, UniProt Q92847, A204E); details: C/R curve did not saturate
Target sequence in this assay (Q92847 whole entry A204E): as the sequence (Q92847 whole entry D99A) above, with A99D, A204E counted along it
Procedure: BRET-based Gαq Dissociation & β-arr2 Recruitment Assays. TRUPATH Gα dissociation: Gαq/i1/i2/OA/12/13/sS^RLuc8 and Gγ8^GFP2 or Gγ9^GFP2 were transiently co-transfected with human 3×HA-GHSR1a^WT and untagged Gβ3 at a 1:1:1:1 ratio (100 μg each) into monolayers of HEK293/T cells along with 1.6 μg pcDNA3.1. The next morning, media (DMEM supplemented with 10% FBS and antibiotic/antimycotic) was exchanged and after 4-6 hours, cells were plated on white 96-well, clear-bottomed assay plates at a density of 40,000-50,000 cells/well in opti-MEM supplemented with 2% FBS and antibiotic/antimycotic. The next morning, opti-MEM was removed and cells were incubated with 80 μL HBSS supplemented with 20 mM HEPES (pH 7.4) for 4 hours. Cells were then treated with 10 μL of the luminescent substrate, coelenterazine 400a (5 μM final), for 5 minutes at room temperature prior to the addition of 10 μL of test compound. Five minutes after ligand application, luminescence was measured by a Mithras 940 plate reader over 30 minutes and the maximal response was utilized for generating all C/R curves.

C57BL/6J mice = assay: Cocaine-induced behavioral sensitization; format: in vivo, mouse; details: N8279 5 mg/kg IP; cocaine 20 mg/kg
Procedure: Next, cocaine-induced behavioral sensitization was assessed in male and female C57BL/6J mice following subchronic (8-day) administration of the vehicle or N8279 (5 mg/kg, IP) in the home-cage. Subsequently, mice were given the same treatments as described above, followed with an injection (IP) of vehicle or cocaine (20 mg/kg) in the open-field once per day for 5 days (FIG. 4D). A […] hiatus (washout) was imposed and behavioral sensitization was assessed the next day by giving (IP) vehicle or cocaine (challenge). […] By comparison, motor activities were stimulated acutely (day 1) to similar extents in the vehicle+cocaine and N8279+cocaine mice (FIG. 4E). […] Moreover, at challenge (day 11), locomotor activity was augmented relative to day 1 in the vehicle+cocaine mice, whereby no change in activity was evident in the N8279+cocaine mice.
Cocaine Sensitization. Male and female C57BL6/J mice (Jackson Labs, Bar Harbor, ME) were administered (IP) vehicle or N8279 (5 mg/kg) subchronically for 8 consecutive days (once/day) (FIG. 4D). Subsequently, mice were placed into the open-field (Accuscan Instruments, Columbus, OH) for 30 min, they were removed, injected (IP) with vehicle or N8279, returned to the open field for 30 min, then the mice were given (IP) vehicle or cocaine (20 mg/kg) and returned to the open-field for 120 minutes (FIG. 4D). […]

hGHSR1a^A204E [3] = target: T6, hGHSR1a^A204E; assay: NanoBiT β-arr2 recruitment at A204E variant; details: did not reach saturation
Target sequence in this assay (Q92847 whole entry A204E): as the sequence (Q92847 whole entry D99A) above, with A99D, A204E counted along it
Target sequence in this assay (P32121 whole entry partner): as the sequence (P32121 whole entry partner) above
Procedure: β-arr2 recruitment: In agonist and antagonist assays of NanoBiT-based β-arr2 recruitment, hGHSR1a^WT-Lg^BiT and ^SmBiT-β^WT were transiently co-transfected at a 1:1 ratio (250 μg each) into monolayers of HEK293/T cells on 6-well plates along with 2 μg of pcDNA3.1. For assays employing the Ala204Glu variant, hGHSR1a^A204E-Lg^BiT was transfected at 2×hGHSR1a^WT-Lg^BiT, as performed for iCa^2+ assays with hGHSR1a^A204E described above. For GHSR1a-β-arr2 saturation assays, a fixed amount of hGHSR1a^WT-Lg^BiT cDNA (250 μg) was transfected with 0, 62.5 (1:0.25), 125 (1:0.5), 250 (1:1), 500 (1:2), or 1000 (1:4) μg of ^SmBiTβ-arr^WT. The morning after transfection, media was exchanged and after 4-6 hours, cells were then plated on white 96-well, clear-bottomed assay plates at a density of 45,000 cells/well in opti-MEM supplemented with 2% FBS and antibiotic/antimycotic. The following morning, opti-MEM was removed and cells were incubated with 70-80 μL HBSS supplemented with 20 mM HEPES (pH 7.4) for 4 hours. Cells were then treated with 10 μL of coelenterazine H (5 μM final) for 15-20 minutes at room temperature. Cells were then stimulated with 10 μL of test compounds and 2 minutes later, luminescence was measured over 5 minutes, which encompassed the peak β-arr2 recruitment signal.

hGHSR1a^A204E [4] = target: T6, hGHSR1a^A204E; assay: iCa2+ at A204E variant; format: cell-based; set-up: expressed in transfected cells; host or cells: HEK293/T, transient
Procedure: as §1
Target sequence in this assay (Q92847 whole entry A204E): as the sequence (Q92847 whole entry D99A) above, with A99D, A204E counted along it

DAT knockout (KO) mice = assay: Spontaneous hyperlocomotion in DAT KO mice (open field); format: in vivo, mouse; details: 2.5, 5, or 10 mg/kg, IP; 120 minutes
Procedure: To evaluate the effect of N8279 on DAergic-modulated behavior in vivo, DAT knockout (KO) mice, which have constitutively elevated extracellular DA levels and consequently, spontaneous hyperactivity in a novel, open-field were used. After a 30 minute acclimation period, male and female DAT KO mice were administered vehicle or pharmacologically-relevant, brain penetrant doses of N8279 (FIG. 4A; 2.5, 5, or 10 mg/kg, IP), then were returned to the open-field and locomotion measured for 120 minutes.
Novelty-induced locomotor activity in DAT KO and inbred C57BL/6J mice. Open-field locomotor activity in mice was performed similar to that described in Barak et al., ACS Chem Biol. (2016)11(7):1880-90, the disclosure of which is incorporated herein in its entirety. In brief, Age- and sex-matched, littermate DAT KO and inbred C57BL/6J mice between 2-6 months of age were used to measure locomotor activity in an Omnitech Digiscan activity monitor (20×20 cm2; Accuscan Instruments, Columbus, OH). Locomotor activity was measured at 5 minutes intervals. To evaluate the effects of compounds on locomotor behavior, the mice were placed in an activity monitor for a 20-minute habituation period, and afterwards injected with drug or vehicle, returned to the monitor, and locomotor activity was recorded over a period of 90 minutes.

SMILES: COc1ccc(C(=O)c2c(C(=O)NCCCN(C)C)oc3ccc(Cl)cc3c2=O)cc1OC [Example N8279, 6-Chloro-3-(3,4-dimethoxybenzoyl)-N-(3-(dimethylamino)propyl)-4-oxo-4H-chromene-2-carboxamide]
- signaling at GHSR1a^D99A in words (hGHSR1a^D99A): abolished
- potency and Emax at GHSR1a^P200A in words (GHSR1a^P200A): reduced dramatically
- Gαq dissociation potency reduction at GHSR1a^E197A (GHSR1a^E197A): ~10 fold
- BRET β-arr2 recruitment, fold less potent than ghrelin [1]: ~100 fold
- signaling at humanized mGHSR in words (mGHSR A199P): rescues
- Gαq dissociation potency reduction at GHSR1a^A204E vs WT (hGHSR1a^A204E [2]): > 20 fold
- cocaine-induced behavioral sensitization in words (C57BL/6J mice): delayed the appearance of sensitization across days and abrogated the expression of sensitization following washout
- β-arr2 recruitment potency reduction at GHSR1a^A204E vs WT (hGHSR1a^A204E [3]): > 20 fold
- iCa2+ efficacy at GHSR1a^A204E in words (hGHSR1a^A204E [4]): full agonism was retained
- iCa2+ potency reduction at GHSR1a^A204E vs WT (hGHSR1a^A204E [4]): 6.5 fold
- hyperlocomotion in DAT KO mice in words (DAT knockout (KO) mice): reduced locomotion; also recorded: reduced overall hyperlocomotion
